Like-named read-outs stand apart in the source and are kept apart here. One block for each compound: values may come before it.
What was measured:
[1] = system: HepG-2 cells; experiment: MTT cytotoxicity assay, HepG-2; assay type: cell-based; conditions: Homo sapiens
Protocol: (§1) Following the published protocol[75]–[77], the cytotoxic effects of the newly synthesized quinazolinones 1–10 were assessed in vitro using the MTT test method on human liver HepG-2, breast MCF-7, colorectal HCT-116 cancer cell lines, and normal diploid cell line WI-38. There were further details in the supplemetary file.
(§2) The cell lines were obtained from Karolinska Center, Department of Oncology and Pathology, Karolinska Institute and Hospital, Stockholm, Sweden, as follows: human liver HepG-2, breast MCF-7, and colorectal HCT-116 cancer cell lines and human diploid cell line WI-38. Exponentially, cells were placed in 10^4 cells/ well for 24 h, and then fresh medium containing different concentrations of the tested sample. two-fold serial dilution of the tested sample was added using a multichannel pipette. Moreover, all cells were cultivated at 37 °C, 5% CO2 and 95% humidity. Also, incubation of control cells occurred at 37 °C. However, after incubation for 24 h different concentrations of the sample (100, 50, 25, 12.5, 6.25, 3.125, and 1.56 µM) were added, and continued the incubation for 48 h, then, add the crystal violet solution of 1% to each well for 0.5 h to examine viable cells. Rinse the wells using water until no stain. After that, add 30% glacial acetic acid to all wells with shaking plates on a Microplate reader (TECAN, Inc.) to measure the absorbance, using a test wavelength of 490 nm. Besides, compare the treated samples with the control cell. The cytotoxicity was estimated by IC50 in (μM), the concentration that inhibits 50% of growth of cancer cell.

[2] = system: HCT-116 cells; experiment: MTT cytotoxicity assay, HCT-116; assay type: cell-based; conditions: Homo sapiens
Protocol: as §1, §2

[3] = system: MCF-7 cells; experiment: MTT cytotoxicity assay, MCF-7; assay type: cell-based; conditions: Homo sapiens
Protocol: as §1, §2

[4] = system: WI-38 cells; experiment: MTT cytotoxicity assay, normal WI-38; assay type: cell-based; conditions: Homo sapiens
Protocol: . […]. Furthermore, the MTT assay was employed to examine the safety profiles of the cytotoxic activity against the normal human diploid cell line WI-38 (Table 1). […]. They could therefore be considered safe chemotherapeutic agents.
as §1, §2

[5] = system: HepG-2, HCT-116 and MCF-7 cell lines; experiment: MTT cytotoxicity, all screened cancer cell lines together (SAR summary); assay type: cell-based, human
Protocol: […]. In addition, replacement of acetyl group in 2 with pyrazoline moiety with free N-1 in 7 or bound to thiazole in 9, yielded weak activity.
as §1, §2

[6] = target: T1, EGFR (Homo sapiens, UniProt P00533); experiment: In vitro EGFR inhibition assay; assay type: biochemical; conditions: for IC50: EGFR, read-out: IC50 (mean ± SD)
T1 construct: purchased Abcam

[7] = target: T2, VEGFR-2 (Homo sapiens, UniProt P35968); experiment: In vitro VEGFR-2 inhibition assay (ELISA kit); assay type: biochemical; conditions: read-out: IC50 (mean ± SD)
T2 construct: purchased Ray Biotech
Protocol: Quinazolinone-based targets 1, 6b, 8a, and 10 were chosen for further evaluation of their in vitro inhibitory activity against EGFR and VEGFR-2 because of their exceptional cytotoxic outcomes, with the goal of clarifying their mode of action. […]. VEGFR-2 assay: the effect of the most promising cytotoxic compounds 1, 6b, 8a, and 10 was evaluated for their in vitro inhibitory activity against Human VEGFR-2 using ELISA kit according to manufacturer's instructions (Ray Biotech). This assay employs an antibody specific for human VEGFR-2 coated on a 96-well plate. Samples and standards were added to the wells and incubated over night at 4 °C with gentle shaking. The wells were washed and biotinylated antibody was added followed by incubation for one hour at room temperature. After washing away unbound biotinylated antibody, HRP conjugated streptavidin was pipetted to the wells and
incubated at room temperature for 45 min. The wells were then washed; TMB substrate solution was added and incubated for 30 min. The color developed was in proportion to the amount of VEGFR-2 bound. The Stop Solution was added and the intensity of the color was measured at 450 nm. Percent inhibition was calculated by the comparison of compounds treated to control incubations. […]

[8] = HepG2, HepG-2, MTT assay, read-out: IC50 (mean ± SD)
[9] = HCT-116, MTT assay, read-out: IC50 (mean ± SD)
[10] = MCF7, MCF-7, MTT assay, read-out: IC50 (mean ± SD)
[11] = normal WI-38, MTT assay, read-out: IC50 (mean ± SD)
[12] = HepG-2, HCT-116 and MCF-7 cell lines

T1 sequence (P00533 25-1210): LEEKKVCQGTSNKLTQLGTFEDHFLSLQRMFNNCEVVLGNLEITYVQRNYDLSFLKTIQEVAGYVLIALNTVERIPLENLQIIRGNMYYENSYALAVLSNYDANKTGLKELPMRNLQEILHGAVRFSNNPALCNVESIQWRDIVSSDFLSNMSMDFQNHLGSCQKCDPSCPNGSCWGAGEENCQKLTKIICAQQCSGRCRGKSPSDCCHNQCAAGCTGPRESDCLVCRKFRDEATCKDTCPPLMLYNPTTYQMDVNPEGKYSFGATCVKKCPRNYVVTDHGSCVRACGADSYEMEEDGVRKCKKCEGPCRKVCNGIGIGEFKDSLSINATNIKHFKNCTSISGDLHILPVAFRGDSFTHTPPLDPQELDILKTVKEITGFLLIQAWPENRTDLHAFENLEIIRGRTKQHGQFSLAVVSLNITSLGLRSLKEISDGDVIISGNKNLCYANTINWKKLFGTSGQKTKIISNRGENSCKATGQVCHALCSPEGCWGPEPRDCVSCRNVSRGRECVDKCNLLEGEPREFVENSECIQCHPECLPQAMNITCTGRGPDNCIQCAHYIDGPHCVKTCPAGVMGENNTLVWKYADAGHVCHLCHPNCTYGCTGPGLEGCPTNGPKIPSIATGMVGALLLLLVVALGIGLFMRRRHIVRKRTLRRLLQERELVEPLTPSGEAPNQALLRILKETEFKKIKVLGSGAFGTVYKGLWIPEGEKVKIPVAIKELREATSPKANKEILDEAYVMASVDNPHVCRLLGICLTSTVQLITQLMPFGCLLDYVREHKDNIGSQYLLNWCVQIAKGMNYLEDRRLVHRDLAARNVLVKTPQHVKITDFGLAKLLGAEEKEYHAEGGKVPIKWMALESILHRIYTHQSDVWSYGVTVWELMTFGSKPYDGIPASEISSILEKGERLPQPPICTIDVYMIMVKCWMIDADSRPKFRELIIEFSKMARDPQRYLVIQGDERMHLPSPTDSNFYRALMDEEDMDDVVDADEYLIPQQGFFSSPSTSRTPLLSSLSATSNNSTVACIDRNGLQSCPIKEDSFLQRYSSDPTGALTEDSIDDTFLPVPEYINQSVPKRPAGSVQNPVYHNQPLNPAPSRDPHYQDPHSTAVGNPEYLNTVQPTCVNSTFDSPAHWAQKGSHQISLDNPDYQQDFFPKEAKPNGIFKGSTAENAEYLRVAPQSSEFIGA
T2 sequence (P35968 20-1356): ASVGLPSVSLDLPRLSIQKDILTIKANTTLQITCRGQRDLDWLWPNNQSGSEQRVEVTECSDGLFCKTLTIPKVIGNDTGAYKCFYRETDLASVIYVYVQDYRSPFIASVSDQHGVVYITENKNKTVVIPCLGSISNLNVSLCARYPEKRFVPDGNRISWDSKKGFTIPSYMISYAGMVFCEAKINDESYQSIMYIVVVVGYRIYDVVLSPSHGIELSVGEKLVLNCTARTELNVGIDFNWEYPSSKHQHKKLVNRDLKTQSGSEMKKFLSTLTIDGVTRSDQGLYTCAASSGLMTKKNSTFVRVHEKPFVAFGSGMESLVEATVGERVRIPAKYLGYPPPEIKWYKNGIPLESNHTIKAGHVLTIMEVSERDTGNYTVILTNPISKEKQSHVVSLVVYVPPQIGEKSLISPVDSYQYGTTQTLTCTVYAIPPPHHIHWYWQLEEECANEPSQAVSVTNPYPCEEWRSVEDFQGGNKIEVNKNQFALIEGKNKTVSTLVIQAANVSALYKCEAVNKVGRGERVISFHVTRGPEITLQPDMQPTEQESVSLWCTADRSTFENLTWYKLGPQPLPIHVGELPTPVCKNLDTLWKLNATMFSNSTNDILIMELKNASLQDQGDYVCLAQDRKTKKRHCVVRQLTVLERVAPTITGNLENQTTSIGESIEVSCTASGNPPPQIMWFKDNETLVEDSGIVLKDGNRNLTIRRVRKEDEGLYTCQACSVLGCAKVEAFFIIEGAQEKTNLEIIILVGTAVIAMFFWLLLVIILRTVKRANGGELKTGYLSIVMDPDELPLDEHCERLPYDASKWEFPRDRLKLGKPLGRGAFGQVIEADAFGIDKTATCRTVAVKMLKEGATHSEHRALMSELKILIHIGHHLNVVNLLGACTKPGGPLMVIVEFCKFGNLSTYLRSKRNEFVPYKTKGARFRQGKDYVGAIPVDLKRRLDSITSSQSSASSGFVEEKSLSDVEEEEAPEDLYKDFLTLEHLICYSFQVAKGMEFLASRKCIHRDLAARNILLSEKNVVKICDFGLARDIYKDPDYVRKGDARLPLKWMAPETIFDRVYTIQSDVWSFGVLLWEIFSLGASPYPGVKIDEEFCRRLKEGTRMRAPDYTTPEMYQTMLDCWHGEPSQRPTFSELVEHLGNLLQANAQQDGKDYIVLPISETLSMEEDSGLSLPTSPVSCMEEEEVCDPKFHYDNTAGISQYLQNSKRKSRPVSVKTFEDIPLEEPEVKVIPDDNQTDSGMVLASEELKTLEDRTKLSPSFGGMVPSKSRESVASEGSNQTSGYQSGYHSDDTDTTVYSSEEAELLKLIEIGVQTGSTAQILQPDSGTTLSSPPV

SMILES: Cc1occ(Sc2nc3ccccc3c(=O)n2-c2ccccc2)c1C(=O)C=Cc1ccco1 [Compound 3d, 2-{{{4-[3-(Furan-2-yl)acryloyl]-5-methylfuran-3-yl}thio}}-3-phenylquinazolin-4(3H)-one]
- IC50 [1, 8]: 18.9 ± 1.4 µM
- IC50 [2, 9]: 25.9 ± 1.7 µM
- IC50 [3, 10]: 16 ± 1.3 µM
- IC50 [4, 11]: > 100 µM

SMILES: Cc1occ(Sc2nc3ccccc3c(=O)n2-c2ccccc2)c1C1=NNC(c2ccc(Cl)cc2)C1 (stereo not shown) [Compound 7, 2-{{{4-[5-(4-Chlorophenyl)-4,5-dihydro-1H-pyrazol-3-yl]-5-methylfuran-3-yl}thio}}-3-phenylquinazolin-4(3H)-one]
- IC50 [1, 8]: 27.9 ± 1.9 µM
- IC50 [2, 9]: 48.9 ± 2.6 µM
- IC50 [3, 10]: 45.8 ± 2.5 µM
- IC50 [4, 11]: > 100 µM
- cytotoxic activity in words (SAR study) [5, 12]: weak activity

SMILES: O=C(CCl)Sc1nc2ccccc2c(=O)n1-c1ccccc1 [Compound 1, S-(4-Oxo-3-phenyl-3,4-dihydroquinazolin-2-yl) 2-chloroethanethioate]
- IC50 [1, 8]: 13.2 ± 1.1 µM
- IC50 [2, 9]: 19.6 ± 1.4 µM
- IC50 [3, 10]: 10.6 ± 0.9 µM
- IC50 [4, 11]: 75.4 ± 3.8 µM
- cytotoxic activity in words (SAR study) [5]: Moderate activity
- IC50 [6]: 25.5 ± 1.2 µM
- IC50 [7]: 70.2 ± 2.55 µM

SMILES: Cc1occ(Sc2nc3ccccc3c(=O)n2-c2ccccc2)c1C(=O)C=Cc1ccc(F)cc1 [Compound 3b, 2-{{{4-[3-(4-Fluorophenyl)acryloyl]-5-methylfuran-3-yl}thio}}-3-phenylquinazolin-4(3H)-one]
- IC50 [1, 8]: 56 ± 3.2 µM
- IC50 [2, 9]: 83.3 ± 4.1 µM
- IC50 [3, 10]: 71.1 ± 3.8 µM
- IC50 [4, 11]: 28.8 ± 1.9 µM

- IC50 [6]: 8.53 ± 0.25 µM
- IC50 [7]: 46.2 ± 1.2 µM
SMILES: Cc1occ(Sc2nc3ccccc3c(=O)n2-c2ccccc2)c1C1=NN(C(N)=S)C(c2ccc(Cl)cc2)C1 (stereo not shown) [Compound 8a, 5-(4-Chlorophenyl)-3-{2-methyl-4-[(4-oxo-3-phenyl-3,4-dihydroquinazolin-2-yl)thio]furan-3-yl}-4,5-dihydro-1H-pyrazole-1-carbothioamide]
- IC50 [1, 8]: 9.68 ± 0.8 µM
- IC50 [2, 9]: 57.1 ± 3.3 µM
- IC50 [3, 10]: 8.29 ± 0.6 µM
- IC50 [4, 11]: 63.2 ± 3.3 µM
- cytotoxic activity in words (SAR study) [5, 12]: Excellent activity

SMILES: COc1ccc(-c2cc(-c3c(Sc4nc5ccccc5c(=O)n4-c4ccccc4)coc3C)ncc2C#N)cc1 [Compound 5, 4-(4-Methoxyphenyl)-6-{2-methyl-4-[(4-oxo-3-phenyl-3,4-dihydroquinazolin-2-yl)thio]furan-3-yl}nicotinonitrile]
- IC50 [1, 8]: 38.5 ± 2.3 µM
- IC50 [2, 9]: 66.3 ± 3.5 µM
- IC50 [3, 10]: 50 ± 2.8 µM
- IC50 [4, 11]: 17.8 ± 1.4 µM
- cytotoxic activity in words (SAR study) [5, 12]: Weak activity

SMILES: CC(=O)c1c(Sc2nc3ccccc3c(=O)n2-c2ccccc2)coc1C [Compound 2, 2-[(4-Acetyl-5-methylfuran-3-yl)thio]-3-phenylquinazolin-4(3H)-one]
- IC50 [1, 8]: 47.8 ± 2.8 µM
- IC50 [2, 9]: 78.7 ± 3.7 µM
- IC50 [3, 10]: 54.9 ± 3.2 µM
- IC50 [4, 11]: 36.9 ± 2.4 µM
- cytotoxic activity in words (SAR study) [5]: Weak activity

- IC50 [6]: 0.51 ± 0.04 µM
- IC50 [7]: 39.4 ± 1.35 µM
SMILES: Cc1occ(Sc2nc3ccccc3c(=O)n2-c2ccccc2)c1C1=NN(C(=S)N=Cc2ccc(C=O)s2)C(c2ccc(F)cc2)C1 (stereo not shown) [Compound 10, 5-(4-Fluorophenyl)-N-[(5-formylthiophen-2-yl)methylene]-3-(2-methyl-4-{[4-oxo-3-phenyl-3,4-dihydroquinazolin-2-yl)thio]furan-3-yl}-4,5-dihydro-1H-pyrazole-1-carbothioamide]
- IC50 [1, 8]: 8.71 ± 0.7 µM
- IC50 [2, 9]: 11.6 ± 0.9 µM
- IC50 [3, 10]: 6.49 ± 0.4 µM
- IC50 [4, 11]: 35.2 ± 2.2 µM
- cytotoxic activity in words (SAR study) [5, 12]: Excellent activity
- selectivity EGFR over VEGFR-2 ([6]; EGFR versus VEGFR-2): substantially more selective for EGFR than VEGFR-2

SMILES: Cc1occ(Sc2nc3ccccc3c(=O)n2-c2ccccc2)c1C(=O)C=Cc1ccc(Cl)cc1 [Compound 3a, 2-{{{4-[3-(4-Chlorophenyl)acryloyl]-5-methylfuran-3-yl}thio}}-3-phenylquinazolin-4(3H)-one]
- IC50 [1, 8]: 21.8 ± 1.6 µM
- IC50 [2, 9]: 34.1 ± 2.1 µM
- IC50 [3, 10]: 37.9 ± 2.2 µM
- IC50 [4, 11]: 68.7 ± 3.6 µM

SMILES: C#Cc1cccc(Nc2ncnc3cc(OCCOC)c(OCCOC)cc23)c1 [Erlotinib, reference compound]
- IC50 ([1]; HepG2, read-out: IC50 (mean ± SD)): 4.5 ± 0.2 µM
- IC50 ([2]; HCT-116, read-out: IC50 (mean ± SD)): 5.23 ± 0.3 µM
- IC50 ([3]; MCF7, read-out: IC50 (mean ± SD)): 4.17 ± 0.2 µM
- IC50 ([4]; WI-38, read-out: IC50 (mean ± SD)): 6.72 ± 0.5 µM

SMILES: Cc1occ(Sc2nc3ccccc3c(=O)n2-c2ccccc2)c1C1=NN(c2nc(Cl)cs2)C(c2ccc(Cl)cc2)C1 (stereo not shown) [Compound 9, 2-{{{4-[5-(4-Chlorophenyl)-1-(4-chlorothiazol-2-yl)-4,5-dihydro-1H-pyrazol-3-yl]-5-methylfuran-3-yl}thio}}-3-phenylquinazolin-4(3H)-one]
- IC50 [1, 8]: 44 ± 2.5 µM
- IC50 [2, 9]: 74.7 ± 3.9 µM
- IC50 [3, 10]: 58 ± 3.4 µM
- IC50 [4, 11]: 39.8 ± 2.4 µM
- cytotoxic activity in words (SAR study) [5, 12]: weak activity

SMILES: Cc1occ(Sc2nc3ccccc3c(=O)n2-c2ccccc2)c1C1=NN(C(N)=S)C(c2ccc(F)cc2)C1 (stereo not shown) [Compound 8b]
- IC50 [1, 8]: 81.5 ± 4.2 µM
- IC50 [2, 9]: 93.4 ± 4.7 µM
- IC50 [3, 10]: 76.1 ± 3.9 µM
- IC50 [4, 11]: 26.9 ± 1.8 µM
- cytotoxic activity in words (SAR study) [5, 12]: Weak activity

SMILES: Cc1occ(Sc2nc3ccccc3c(=O)n2-c2ccccc2)c1C1CC(c2ccc(F)cc2)Nc2ccccc2N1 (stereo not shown) [Compound 6a, 2-{{{4-[4-(4-Fluorophenyl)-2,3,4,5-tetrahydro-1H-benzo[b][1,4]diazepin-2-yl]-5-methylfuran-3-yl}thio}}-3-phenylquinazolin-4(3H)-one]
- IC50 [1, 8]: 35.8 ± 2.1 µM
- IC50 [2, 9]: 52.5 ± 3.1 µM
- IC50 [3, 10]: 33.6 ± 2 µM
- IC50 [4, 11]: 85.1 ± 4.2 µM
- cytotoxic activity in words (SAR study) [5, 12]: Weak activity

SMILES: COc1ccc(C=CC(=O)c2c(Sc3nc4ccccc4c(=O)n3-c3ccccc3)coc2C)cc1 [Compound 3c, 2-{{{4-[3-(4-Methoxyphenyl)acryloyl]-5-methylfuran-3-yl}thio}}-3-phenylquinazolin-4(3H)-one]
- IC50 [2, 9]: > 100 µM
- IC50 [3, 10]: 23.4 ± 1.6 µM
- IC50 [4, 11]: 53.2 ± 2.9 µM

SMILES: CCOC(=O)C1C(=O)C=C(c2c(Sc3nc4ccccc4c(=O)n3-c3ccccc3)coc2C)CC1c1ccc(F)cc1 (stereo not shown) [Compound 4, Ethyl 4′-fluoro-5-{2-methyl-4-[(4-oxo-3-phenyl-3,4-dihydroquinazolin-2-yl)thio]furan-3-yl}-3-oxo-1,2,3,6-tetrahydro-[1,1′-biphenyl]-2-carboxylate]
- IC50 [1, 8]: 64.9 ± 3.5 µM
- IC50 [2, 9]: 87.8 ± 4.3 µM
- IC50 [3, 10]: 62.1 ± 3.5 µM
- IC50 [4, 11]: 44.9 ± 2.7 µM
- cytotoxic activity in words (SAR study) [5, 12]: Weak activity
